Patent US5977144A (priority 1997, dated 1999)
“Also recorded” adds a separate entry of the source. Structures can show the parent of a compound that is named as a salt. Where two headings read alike, the source gives them in different places.

Assays:
rat = test: Focal ischemia infarct size in rats; assay type: in vivo; details: 0.5 mg/kg IP mecamylamine with DMXB
Protocol: FIG. 3. […] Rats received a 30 minute ischemia attack through tying of their common carotid; the amount of cell death (proportional to Infarct Size) was determined 24 hours later. Some animals received the benzylidene-anabaseine compound DMXB (1 mg/kg IP, salt weight) 1 hour before ligation, or the nicotinic antagonist mecamylamine (0.5 mg/kg IP), or both mecamylamine and DMXB, or DMXB 5 minutes after the ligation.
Male Sprague Dawley albino male rats (250-300 g) were anesthetized with a subcutaneous injection of ketamine, xylazine, and acepromazine (3:3:1 mixture, 0.7 cc/kg). Atropine (0.4 mg/kg IP) was injected several min prior to dissection of the carotid artery from the vagus. The internal carotid artery (ICA) was dissected until its proximal bifurcation into the terminal ICA and pterygopalatine arteries were clearly defined. The pterygopalatine artery was clipped parallel to and flush with the terminal ICA. Another clip was applied to the common carotid artery (CCA). The distal aspect of the external carotid artery (ECA) was coagulated and a straight aneurysm clip was applied 4 mm distal to the proximal ICA bifurcation. A suture was passed through the arteriotomized ECA stump into the ICA until the tip was resting against the aneurysm clip. The suture was removed 30 min later, with body temperature maintained between 36.5-37.5° C. The ECA stump was coagulated with bipolar electrocautery. Clips were removed and the wound was irrigated with saline prior to suturing.
Rats were euthanised 24 hours post-infarction and their brains removed and sectioned coronally (2 mm). Sections were placed into a 2% solution of 2,3,5-triphyenyl-tetrazolium cholide (Sigma Chemical Co., St. Louis. Mo.) for 20 minutes at 37° C. The sections were removed to a petri dish and covered with 10% formaldehyde solution. The outline function of the NIH Image computer program (version 1.47) was used to estimate the infarcted and total brain areas for each section. Infarct size was calculated as percent of total brain area.

[1] = test system: rat primary neocortical neurons; assay type: cell-based
[2] = target: alpha7 receptor (high affinity alpha-bungarotoxin binding, rat brain membranes) (Rattus norvegicus, UniProt Q05941); test: biochemical
Sequence of alpha7 receptor (high affinity alpha-bungarotoxin binding, rat brain membranes) (Q05941 23-502): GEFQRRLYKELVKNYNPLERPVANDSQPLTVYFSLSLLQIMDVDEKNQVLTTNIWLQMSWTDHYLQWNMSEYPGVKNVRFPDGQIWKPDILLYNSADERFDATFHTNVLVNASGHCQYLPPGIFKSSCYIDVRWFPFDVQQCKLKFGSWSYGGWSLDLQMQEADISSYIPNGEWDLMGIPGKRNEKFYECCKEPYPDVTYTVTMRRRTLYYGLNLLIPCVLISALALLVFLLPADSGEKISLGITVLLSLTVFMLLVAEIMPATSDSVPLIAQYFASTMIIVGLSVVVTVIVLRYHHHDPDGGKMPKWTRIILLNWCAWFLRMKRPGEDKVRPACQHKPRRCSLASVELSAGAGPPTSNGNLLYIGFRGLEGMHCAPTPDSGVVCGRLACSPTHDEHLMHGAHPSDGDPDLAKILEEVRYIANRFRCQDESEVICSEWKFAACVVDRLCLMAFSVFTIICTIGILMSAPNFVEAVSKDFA

rat alpha7 receptor [3] = target: T1, rat alpha7 receptor (Rattus norvegicus, UniProt Q05941); test: cell-based
T1 sequence (Q05941 23-502): as above
Protocol: FIG. 13A. Effects of chronic injections of DMXB or nicotine on high affinity [^3 H]ACh or [^125 I]α-bungarotoxin (BTX) binding in rat neocortices. Adult male rats were injected with saline vehicle, 1 mg/kg DMXB or 0.2 mg/kg nicotine (NIC) (IP) daily for 2 weeks. At that time, neocortices were removed and assayed for high affinity [^3 H]ACh or [^125 I]α-bungarotoxin binding as described in the text. […] Responses of rat α7 ACHR to 3-CA, 2-MeOCA and 4-MeOCA. Concentration-response relationships for the peak agonist activated currents of oocytes injected with RNA coding for the rat α7 subunit. All responses were initially measured relative to the individual oocyte-response to 500 μM ACh, applied 5 min prior to drug-application. Responses were normalized relative to the maximum response obtainable with ACh so that a response of 1 represents full efficacy. The ratio of 500 μM ACh control response to ACh maximum was taken from Papke et al., 1997.
(§1) Oocytes were prepared and recordings made as described previously (de Fiebre, et al., 1995). Frogs were anesthetized by submersion in 0.1% (3)-aminobenzoic acid ethyl ester and several lobes of the ovary surgically removed through a small incision in the abdomen wall. Oocytes were freed from the follicle cells by treatment with collagenase (in calcium-free Barth's solution: 88 mM NaCl, 1 mM KCl, 15 mM Hepes pH 7.6, 0.33 mM MgSO4, 0.1 mg/ml gentamicin sulfate) for 2 hr at room temperature and Stage 5 oocytes were isolated. Oocytes were rinsed and stored at 18° C. in Barth's saline (88 mM NaCl, 1 mM KCl, 15 mM Hepes pH 7.6, 0.3 mM Ca(NO3)2, 0.41 mM CaCl2, 0.82 mM MgSO4, 0.1 mg/ml gentamicin sulfate) before and after microinjection with RNA. Microinjection was conducted with a Drummond Scientific "Nanoject Variable" automatic injector. Oocytes were injected with a 50 nl solution of specified rat nicotinic subunit mRNA species (2-10 mg/ml; derived from the cDNA containing HIP 306 plasmid kindly provided by Dr. Jim Boulter, Salk Institute) and incubated 2-7 days at 18° C. before electrophysiological recording. electrophysiological recordings, oocytes were perfused in a Warner Instruments RC-8 recording chamber with a perfusion solution containing 115 mM NaCl, 2.5 mM KCl, 10 mM Hepes pH 7.2, 1.8 mM CaCl2 and 1 μM atropine to block muscarinic responses. Perfusion was continuous at a rate of 10 ml/min. Drags were diluted in perfusion solution and applied using a solenoid valve to switch from perfusion to drug solutions. Current responses to drug administration were studied under two electrode voltage clamp at a holding potential of -70 mV using a Dagan Corp. TEV-200 voltage clamp connected to a 386-SX IBM computer using a TL-1 DMA interface (Axon Instruments). Micropipettes were filled with 3 M KCl and had resistances of 0.5-2 MOhms. Drug responses are analyzed with PClamp software (Axon Instruments). Oocytes with resting potentials of less than -30 mV were rejected.

rat alpha4beta2 receptor = rat alpha4beta2 receptor (Rattus norvegicus, UniProt P09483+P12390); test: Activation of alpha4beta2 receptors expressed in Xenopus oocytes; assay type: cell-based; details: for Emax: read-out: alpha4beta2 activation: response compared to maximal acetylcholine
Sequence of rat alpha4beta2 receptor (P09483 31-630): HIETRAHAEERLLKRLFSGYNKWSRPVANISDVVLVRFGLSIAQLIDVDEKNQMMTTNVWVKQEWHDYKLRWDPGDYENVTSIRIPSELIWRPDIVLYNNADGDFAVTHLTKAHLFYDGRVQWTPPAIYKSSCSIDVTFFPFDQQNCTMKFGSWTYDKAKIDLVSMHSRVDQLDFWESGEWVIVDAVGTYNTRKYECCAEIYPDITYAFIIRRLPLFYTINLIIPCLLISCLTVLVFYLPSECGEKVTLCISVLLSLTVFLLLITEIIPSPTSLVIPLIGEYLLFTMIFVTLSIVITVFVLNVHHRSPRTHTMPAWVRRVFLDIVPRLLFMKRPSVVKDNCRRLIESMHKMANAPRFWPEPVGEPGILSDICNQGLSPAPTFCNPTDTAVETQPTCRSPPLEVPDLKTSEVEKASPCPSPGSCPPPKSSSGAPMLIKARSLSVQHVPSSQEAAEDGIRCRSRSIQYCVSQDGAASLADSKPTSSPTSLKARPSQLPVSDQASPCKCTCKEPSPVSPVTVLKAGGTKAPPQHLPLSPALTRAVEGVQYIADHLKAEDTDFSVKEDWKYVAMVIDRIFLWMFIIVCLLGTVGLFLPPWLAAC
Sequence of rat alpha4beta2 receptor (P12390 25-500): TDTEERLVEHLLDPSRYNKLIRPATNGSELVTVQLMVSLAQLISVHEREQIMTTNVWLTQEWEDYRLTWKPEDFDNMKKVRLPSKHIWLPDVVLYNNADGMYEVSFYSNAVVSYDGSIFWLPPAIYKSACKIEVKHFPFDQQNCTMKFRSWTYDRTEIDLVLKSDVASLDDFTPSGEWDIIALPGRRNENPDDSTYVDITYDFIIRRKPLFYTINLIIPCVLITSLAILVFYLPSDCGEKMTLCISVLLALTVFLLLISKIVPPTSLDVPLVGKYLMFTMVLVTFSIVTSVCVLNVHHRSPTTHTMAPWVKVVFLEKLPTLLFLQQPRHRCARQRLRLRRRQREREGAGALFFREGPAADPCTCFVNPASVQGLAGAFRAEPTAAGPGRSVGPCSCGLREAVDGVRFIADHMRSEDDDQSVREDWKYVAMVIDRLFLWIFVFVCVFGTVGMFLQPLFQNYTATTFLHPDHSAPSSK
Protocol: FIG. 14A. Responses of α4β2 ACHR to 3-CA, 2-MeOCA or 4-MeOCA. Concentration-response relationships for the peak agonist activated currents of oocytes injected with RNA coding for rat α4β2 subunits. Responses are first expressed relative to the response to 10 μM ACh, applied 5 min before drug-application, then normalized to the maximum response obtainable with ACh so that a response of 1 represents full efficacy. The ratio between 10 μM ACh and maximum ACh response was determined in separate experiments.
as §1

rat alpha7 receptor [4] = target: T1, rat alpha7 receptor; test: cell-based; parameters: Oocytes Antagonist: unit not given here
Protocol: FIG. 13B. Effects of chronic injections of DMXB or nicotine on high affinity [^3 H]ACh or [^125 I]α-bungarotoxin (BTX) binding in rat neocortices. Adult male rats were injected with saline vehicle, 1 mg/kg DMXB or 0.2 mg/kg nicotine (NIC) (IP) daily for 2 weeks. At that time, neocortices were removed and assayed for high affinity [^3 H]ACh or [^125 I]α-bungarotoxin binding as described in the text. […] Responses of rat α7 AChR to 3-CA, 2-MeOCA and 4-MeOCA. […] All responses are expressed relative to the oocyte-response to 500 μM ACh applied 5 min prior to the experimental agonist application.
as §1
Antagonist properties subsequent to agonist activity were measured as a decrease in responsiveness to ACh applied 5 min after compound-application, normalized to ACh application instead of the anabaseine-derivative (FIG. 13A AND FIG. 13B).

PC12 cells = assay type: cell-based; details: 10 μM (NGF 100 ng/ml); 4 days after removal of serum and NGF; mean±SEM; * p<0.05
Protocol: PC12 cell-culture methods were modified from Greene and Tischler (1976). Cells were plated at 30-40% confluence and grown in Dulbecco's Modified Eagle Medium containing 10% heat-inactivated horse serum, 5% fetal bovine serum, 100 units/ml penicillin, 100 μg/ml streptomycin and 0.5 mM 1-glutamine. Cultures were maintained at 37° C., […] /6% CO2 and 90-92% humidity in culture plates pre-coated with poly-1lysine (10 g/L). Cultures were maintained for 7 days in serum-supplemented medium to which 100 ng/ml rat 2.5S NGF was added at day 1. On day 7, conditioned medium was replaced serum-free medium containing specified drugs. Four days later, cell density was estimated using the NIH Image program version 1.47 and number of neurite-expressing cells counted manually in blind fashion as described previously (Martin et al., 1994). A Nikon inverted microscope (100× magnification) was attached to a Mac II computer via a monochrome video camera (Cohu, Inc., San Diego, Calif.). Four random areas were counted per plate and there were 4 plates per treatment group, unless otherwise indicated. Neurites were defined as processes at least 2× the length of the perikaryon. To assess the reliability of the image analyses, a reticle was used for direct quantification of cells in the same view as the one analyzed in random samples.
PC12 cells were differentiated for 1 week with NGF. Drugs were administered for the 4 day interval after removal of serum and NGF. Neuites were counted and expressed as the mean±SEM of at least 3 plates/group.

[5] = read-out: alpha7 binding: % Inhibition of high affinity alphabungarotoxin binding (1 nM)
[6] = read-out: alpha7 activation: response, normalized to 500 μM acetylcholine (maximum response)
[7] = Table 4, read-out: Receptor Binding α7

Compound: CNC1(C)C2CCC(C2)C1(C)C (centres unmarked) [mecamylamine, reference compound]
- block of neuroprotective action of DMXB (in words) (rat): blocked this neuroprotective action of DMXB; also recorded: blocking action
- antagonist effect on DMXB-induced neuroprotection (in words) ([1]; against glutamate cytotoxicity): sensitive

Compound: COc1ccc(C=C2CCCN=C2c2cccnc2)c(O)c1 [GTS-51, 3-(2-hydroxy-4-methoxybenzylidene) anabaseine]
- inhibition at 1 µM [2, 5]: 45%
- Emax (rat alpha7 receptor [3]; read-out: Oocytes Agonist α7): 29%
- Emax (rat alpha7 receptor [3]; [6]): 29%
- Emax (rat alpha4beta2 receptor): 1%
- Oocytes Antagonist (rat alpha7 receptor [4]): .26

Compound: COc1ccc(C=C2CCCNC2c2cccnc2)c(OC)c1 (centres unmarked) [3(4-dimethoxy-benzylidene)anabasine]
- inhibition at 1 µM [2, 7]: 9%

Compound: (7'-methyl-3-(2,4-dimethoxybenzylidene)) anabaseine [7'-methyl-DMXB]
- alpha7 activation: response, normalized to 500 μM acetylcholine (maximum response) (rat alpha7 receptor [3]): 0.32
- alpha4beta2 activation: response compared to maximal acetylcholine (rat alpha4beta2 receptor; xenopus oocytes): 0.02

Compound: Oc1ccc(C=C2CCCN=C2c2cccnc2)cc1 [GTS-7, 3-(4-hydroxybenzylidene)anabaseine]
- inhibition at 1 µM [2, 7]: 69.3%
- inhibition at 1 µM ([2]; concentration of 1 μM (Table 1), read-out: alpha7 binding: % Inhibition of high affinity alphabungarotoxin binding (1 nM)): 69%
- Emax (rat alpha7 receptor [3]; [6]): 31%
- Emax (rat alpha4beta2 receptor): 2%

Compound: COc1cc(O)ccc1/C=C/C=C1\CCCN=C1c1cccnc1 [GTS-86, trans-3-(4-hydroxy-2-methoxycinnamylidene) anabaseine dihydrochloride]
- inhibition at 1 µM [2, 7]: 90%

Compound: NGF: nerve growth factor, 100 ng/ml (rat 2.5S NGF)
- Neurite Counts (PC12 cells): 342 ± 56

Compound: α-bungarotoxin [reference compound]
- Kd ([2]; read-out: Kd, Scatchard analysis (r=0.98; single site model)): 1.9 nM
- antagonist effect on DMXB-induced neuroprotection (in words) [1]: sensitive

Compound: COc1ccc(C(C)=C2CCCN=C2c2cccnc2)c(OC)c1 [GTS-80, 3-(2,4-dimethoxy-α-methyl-benzylidene)]
- inhibition at 1 µM [2, 7]: 85%

Compound: C[C@]12N[C@H](Cc3ccccc31)c1ccccc12 [MK-801]
- protection against glutamate, concomitant (in words) ([1]; 10 μM, with 1 mM glutamate): blocking effect

Compound: C[N+](C)(C)CCCCCC[N+](C)(C)C [hexamethonium]
- antagonist effect on DMXB-induced neuroprotection (in words) ([1]; against glutamate cytotoxicity): sensitive

Compound: CN1CCCC1c1cccnc1 (centres unmarked) [nicotine]
- protection by nicotine (in words) [1]: protected against neuronal loss

Compound: COc1cc(O)ccc1C=C1CCCN=C1c1cccnc1 [GTS-62, 3-(4-hydroxy-2-methoxybenzylidene)anabaseine]
- inhibition at 1 µM ([2]; read-out: Receptor Binding α7): 84%
- inhibition at 1 µM [2, 5]: 84%
- Emax (rat alpha7 receptor [3]; read-out: Oocytes Agonist α7): 43%
- Emax (rat alpha7 receptor [3]; [6]): 41%
- Emax (rat alpha4beta2 receptor): 4%
- Oocytes Antagonist (rat alpha7 receptor [4]): .35

Compound: CCN1C[C@]2(COC(=O)c3ccccc3N3C(=O)C[C@H](C)C3=O)CC[C@H](OC)[C@@]34[C@@H]5C[C@H]6[C@H](OC)[C@@H]5[C@](O)(C[C@@H]6OC)[C@@](O)([C@@H](OC)[C@H]23)[C@@H]14 [methyllycaconitine]
- antagonist effect on DMXB-induced neuroprotection (in words) ([1]; against glutamate cytotoxicity): sensitive

Compound: COc1ccc(/C=C/C=C2\CCCN=C2c2cccnc2)c(OC)c1 [GTS-87, trans-3-(2,4-dimethoxycinnamylidene) anabaseine dihydrochloride]
- inhibition at 1 µM [2, 7]: 76%

Compound: COc1ccc(C=C2CCCN=C2c2cccnc2)cc1 [GTS-2, 3-(4-methoxybenzylidene)anabaseine]
- Emax (rat alpha7 receptor [3]; [6]): 7%
- Emax (rat alpha4beta2 receptor): 5%

Compound: Nc1ccc(C=C2CCCN=C2c2cccnc2)cc1 [GTS-13, 3-(4-aminobenzylidene)anabaseine]
- inhibition at 1 µM ([2]; read-out: Receptor Binding α7): 93%
- inhibition at 1 µM [2, 5]: 93%
- Emax (rat alpha7 receptor [3]; read-out: Oocytes Agonist α7): 72%
- Emax (rat alpha7 receptor [3]; [6]): 72%
- Emax (rat alpha4beta2 receptor): 5%
- Oocytes Antagonist (rat alpha7 receptor [4]): .69

Compound: CN(C)CCCOc1ccc(C=C2CCCN=C2c2cccnc2)cc1 [compound 15, 3(4-dimethylaminopropoxy-benzylidene)anabaseine]
- inhibition at 1 µM [2, 7]: 87%
- Emax (rat alpha7 receptor [3]; Table 4, read-out: Oocytes Agonist α7): 3%
- Oocytes Antagonist (rat alpha7 receptor [4]; Table 4): .02
